In patent US6706663B2, “Herbicidal 3-heterocyclic substituted benzisothiazole and benzisoxazole compounds” (Wyeth, priority 2000, dated 2004):

Key:
[1] = tested on: ECHCG (Echinochloa crus-galli); assay: Postemergence herbicidal evaluation; type: in vivo, (L.) Beau; conditions: postemergence
Method in brief: (§1)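 Visual 0–9 injury scores versus control plants, covering stand, vigour, malformation, size, chlorosis and general appearance, taken four to five weeks post-spray and averaged over replicate tests. Plants were sprayed at roughly two weeks old and held on greenhouse benches.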

SETVI (Setaria viridis) = assay: Postemergence herbicidal evaluation; type: in vivo, (L.) Beau; conditions: postemergence
Method in brief: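 Visual injury score (0-9: stand, vigor, malformation, size, chlorosis, overall appearance vs untreated control) taken four to five weeks post-spray. Two-week-old seedlings received about 0.0040 to 1.000 kg/ha active compound in acetone/water with 0.5% TWEEN 20.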

[2] = tested on: TRZAWR (Wheat, Winter, cv Riband); assay: Postemergence herbicidal evaluation; type: in vivo, Triticum aestivum; conditions: postemergence
Method in brief: as §1

[3] = tested on: ABUTH (Abutilon theophrasti); assay: Preemergence herbicidal evaluation; type: in vivo, Medic.; conditions: rated 4-5 weeks after treatment
[4] = tested on: AMBEL (Ambrosia artemisifolia); assay: Preemergence herbicidal evaluation; type: in vivo, L.; conditions: rated 4-5 weeks after treatment
Method in brief: (§2)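 Preemergence soil spray, aq. acetone; greenhouse; visual 0–9 score vs control at 4–5 wk.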

[5] = tested on: CASOB (Cassia obtusifolia); assay: Preemergence herbicidal evaluation; type: in vivo, L.; conditions: rated 4-5 weeks after treatment
Method in brief: as §2

[6] = tested on: CHEAL (Chenopodium album); assay: Preemergence herbicidal evaluation; type: in vivo, L.; conditions: rated 4-5 weeks after treatment
Method in brief: as §2

[7] = tested on: IPOHE (Ipomoea hederacea); assay: Preemergence herbicidal evaluation; type: in vivo, (L.) Jacq.; conditions: rated 4-5 weeks after treatment
[8] = tested on: GLXMAW (Soybean, Williams); assay: Preemergence herbicidal evaluation; type: in vivo, Glycine max, (L.) Merr. cv Williams; conditions: rated 4-5 weeks after treatment
ZEAMX (Corn, Field) = assay: Preemergence herbicidal evaluation; type: in vivo, Zea mays, L.; conditions: rated 4-5 weeks after treatment
[9] = tested on: ECHORC (Echinochloa oryzoides); assay: Flooded paddy, preemergence weed control; type: in vivo, Echinochloa oryzoides (Ard.) Fritsch.; conditions: rated 3-4 weeks after treatment, 0-9 rating scale
Method in brief: (§3)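 Scoring used a 0-9 visual scale relative to control. Before that, seeds or propagules were planted shallowly in silt loam and flooded to 1.5–3 cm, a depth maintained throughout, with greenhouse care during the test.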

CYPIR (Cyperus iria) = assay: Flooded paddy, preemergence weed control; type: in vivo; conditions: rated 3-4 weeks after treatment, 0-9 rating scale
Method in brief: as §3

[10] = tested on: MOOVA (Monochoria vaginalis); assay: Flooded paddy, preemergence weed control; type: in vivo, Presl.; conditions: rated 3-4 weeks after treatment, 0-9 rating scale
Method in brief: as §3

[11] = tested on: SAGPY (Sagittaria pygmaea); assay: Flooded paddy, preemergence weed control; type: in vivo, L.; conditions: rated 3-4 weeks after treatment, 0-9 rating scale
Method in brief: as §3

ORYSAT (Rice, Tebonnet) = assay: Flooded paddy, post-transplant rice tolerance; type: in vivo, Oryza sativa, (L.) Tebonnet; conditions: flooded paddy, post-transplant rice, rated 3-4 weeks after treatment, 0-9 rating scale
Method in brief: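 Ten-day-old seedlings, 2/pot, silt loam; flood kept 1.5–3 cm over soil; herbicide applied post-transplant; greenhouse; score 0–9 visual vs control.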

Cn1c(C(F)(F)F)cc(=O)n(-c2cc3c(C4OCCCO4)nsc3cc2F)c1=O [Compound 62, 3-(3-m-dioxan-2-yl-6-fluoro-1,2-benzisothiazol-5-yl)-1-methyl-6-(trifluoromethyl)uracil]
ECHCG herbicidal rating ([1]; rate 0.0320 kg/ha): 6.0
ECHCG herbicidal rating ([1]; rate 0.0620 kg/ha): 9.0
SETVI herbicidal rating (SETVI (Setaria viridis); rate 0.0320 kg/ha): 9.0
SETVI herbicidal rating (SETVI (Setaria viridis); rate 0.0620 kg/ha): 9.0
TRZAWR herbicidal rating ([2]; rate 0.0320 kg/ha): 6.5
TRZAWR herbicidal rating ([2]; rate 0.0620 kg/ha): 6.5
Preemergence herbicidal rating ABUTH ([3]; Rate 0.0620 kg/ha): 9.0
Preemergence herbicidal rating ABUTH ([3]; Rate 0.1250 kg/ha): 9.0
Preemergence herbicidal rating ABUTH ([3]; Rate 0.2500 kg/ha): 9.0
Preemergence herbicidal rating AMBEL ([4]; Rate 0.0620 kg/ha): 9.0
Preemergence herbicidal rating AMBEL ([4]; Rate 0.1250 kg/ha): 9.0
Preemergence herbicidal rating AMBEL ([4]; Rate 0.2500 kg/ha): 9.0
Preemergence herbicidal rating CASOB ([5]; Rate 0.0620 kg/ha): 9.0
Preemergence herbicidal rating CASOB ([5]; Rate 0.1250 kg/ha): 9.0
Preemergence herbicidal rating CASOB ([5]; Rate 0.2500 kg/ha): 9.0
Preemergence herbicidal rating CHEAL ([6]; Rate 0.0620 kg/ha): 9.0
Preemergence herbicidal rating CHEAL ([6]; Rate 0.1250 kg/ha): 9.0
Preemergence herbicidal rating CHEAL ([6]; Rate 0.2500 kg/ha): 9.0
Preemergence herbicidal rating IPOHE ([7]; Rate 0.0620 kg/ha): 9.0
Preemergence herbicidal rating IPOHE ([7]; Rate 0.1250 kg/ha): 9.0
Preemergence herbicidal rating IPOHE ([7]; Rate 0.2500 kg/ha): 9.0
Preemergence herbicidal rating GLXMAW ([8]; Rate 0.0620 kg/ha): 9.0
Preemergence herbicidal rating GLXMAW ([8]; Rate 0.1250 kg/ha): 9.0
Preemergence herbicidal rating GLXMAW ([8]; Rate 0.2500 kg/ha): 9.0
Preemergence herbicidal rating ZEAMX (ZEAMX (Corn, Field); Rate 0.0620 kg/ha): 9.0
Preemergence herbicidal rating ZEAMX (ZEAMX (Corn, Field); Rate 0.1250 kg/ha): 9.0
Preemergence herbicidal rating ZEAMX (ZEAMX (Corn, Field); Rate 0.2500 kg/ha): 9.0
herbicidal rating, ECHORC ([9]; rate 0.0080 kg/ha): 8.5
herbicidal rating, ECHORC ([9]; rate 0.0320 kg/ha): 9.0
herbicidal rating, ECHORC ([9]; rate 0.1250 kg/ha): 9.0
herbicidal rating, CYPIR (CYPIR (Cyperus iria); rate 0.0080 kg/ha): 4.5
herbicidal rating, CYPIR (CYPIR (Cyperus iria); rate 0.0320 kg/ha): 9.0
herbicidal rating, CYPIR (CYPIR (Cyperus iria); rate 0.1250 kg/ha): 9.0
herbicidal rating, MOOVA ([10]; rate 0.0080 kg/ha): 8.0
herbicidal rating, MOOVA ([10]; rate 0.0320 kg/ha): 9.0
herbicidal rating, MOOVA ([10]; rate 0.1250 kg/ha): 9.0
herbicidal rating, SAGPY ([11]; rate 0.0080 kg/ha): 9.0
herbicidal rating, SAGPY ([11]; rate 0.0320 kg/ha): 6.0
herbicidal rating, SAGPY ([11]; rate 0.1250 kg/ha): 9.0
herbicidal rating, ORYSAT (rice tolerance) (ORYSAT (Rice, Tebonnet); rate 0.0080 kg/ha): 9.0
herbicidal rating, ORYSAT (rice tolerance) (ORYSAT (Rice, Tebonnet); rate 0.0320 kg/ha): 9.0
herbicidal rating, ORYSAT (rice tolerance) (ORYSAT (Rice, Tebonnet); rate 0.1250 kg/ha): 9.0
